Values quoted from earlier work as cited in US20050159439A1, “Management of postoperative pain” (priority 2001, published 2005).

Tested on: subjects operated on for lumbar disc herniation
Settings: 10 mg epidural morphine, lumbar disc herniation surgery

## CN1CC[C@]23c4c5ccc(O)c4O[C@H]2[C@@H](O)C=C[C@H]3[C@H]1C5 [morphine]
  Pain relief: significant pain relief
  Side effect: urinary retention was the relevant side effect
